Experimental findings from patent US20200131669A1, “CYCLIC PEPTIDE COMPOUND HAVING HIGH MEMBRANE PERMEABILITY, AND LIBRARY CONTAINING SAME” (Chugai Seiyaku Kabushiki Kaisha, priority 2017, published 2020) are described below.

SMILES strings stand for the structures. Starred links: 1 amine or outer side, 2 acyl side, 3 side chain; linkers in the order of their positions; H or OH if unused. Positions of bridges follow the written chain, without caps; N, C: chain ends. Non-standard residues stand in square brackets, D forms with d. Residues, ends and D or L forms follow the SMILES beside them. *: point of attachment. NMeF = CN[C@@H](Cc1ccccc1)C(=O)O; NMeGABA = CN(CCCC(=O)[*:2])[*:1]; NMeL = CN[C@@H](CC(C)C)C(=O)O; NMeV = CN[C@H](C(=O)O)C(C)C; NMeA = CN[C@@H](C)C(=O)O; Piperidide = C1CCN(*)CC1; Me2NCH2CH2 = CN(C)CC*; NBuGly = CCCCNCC(=O)O; NPrGly = CCCNCC(=O)O; tBu = CC(C)(C)*

One series is described as follows: Caco-2 membrane permeability, improved method as used in the following Examples (96-well, 20 to 24 h preincubation). It counts as in vitro ADME. The following applies: human, Caco-2, Caco-2. How it is done:
In the following Examples, membrane permeability was measured in accordance with the improved method established as described above. Specifically, Caco-2 cells were cultured on a 96-well Transwell for three weeks, after which DMEM+FaSSIF (1% DMSO)+compound were added to the apical side and DMEM was added to the basal side, and the cells were preincubated at 5% CO2, 37° C., and 80 rpm for 20 to 24 hours. Following the preincubation, measurement of membrane permeability was initiated by removing the preincubation solution on the apical and basal sides by suction, washing the membrane, and adding FaSSIF/HBSS buffer (1% DMSO) (pH 6.0) containing the compound to the apical side and HBSS buffer (4% BSA) (pH 7.4) to the basal side. Each well was shaken at 5% CO2, 37° C., and 80 rpm, and 180 minutes after the initiation, the sample on the basal side was collected and the permeation amount was measured by LC/MS. The membrane permeability coefficient (Papp) was calculated from the permeation amount. Herein, the terms “Caco-2 (cm/sec)” in the columns in the tables and “Papp (cm/sec)” are used in the same meaning.
`CCCN1CC(=O)N(C)[C@@H](CC(C)C)C(=O)N[C@@H](COC(C)(C)C)C(=O)N(C)[C@@H](Cc2ccccc2)C(=O)N(C)[C@@H](C(C)C)C(=O)N[C@H](C(=O)N2CCCCC2)CC(=O)N[C@H](C(C)C)C(=O)N(C)[C@@H](Cc2ccccc2)C(=O)N[C@@H](COCCN(C)C)C(=O)N(C)[C@@H](CC(C)C)C(=O)N[C@@H]([C@@H](C)O)C1=O` [pd50] ([dV][NMeF]S(Me2NCH2CH2)[NMeL]T[NPrGly][NMeL]S(tBu)[NMeF][NMeV]D-Piperidide; lactam N-11) gave a Papp A→B at 180 min of 0.15 ×10⁻⁶ cm/s.
With `CCCCN1CC(=O)N(C)[C@@H](CC(C)C)C(=O)N[C@@H](COCCN(C)C)C(=O)N(C)[C@@H](Cc2ccccc2)C(=O)N(C)[C@@H](C(C)C)C(=O)N[C@H](C(=O)N2CCCCC2)CC(=O)N[C@H](CC(C)C)C(=O)N(C)[C@@H](Cc2ccccc2)C(=O)N[C@@H](CC(C)C)C(=O)N(C)[C@@H](CC(C)C)C(=O)N[C@@H]([C@@H](C)O)C1=O` [pd51] ([dL][NMeF]L[NMeL]T[NBuGly][NMeL]S(Me2NCH2CH2)[NMeF][NMeV]D-Piperidide; lactam N-11), the Papp A→B at 180 min stood at 0.07 ×10⁻⁶ cm/s.
As to `CCCN1CC(=O)N(C)[C@@H](CC(C)C)C(=O)N[C@@H](COCCN(C)C)C(=O)N(C)[C@@H](Cc2ccccc2)C(=O)N(C)[C@@H](C(C)C)C(=O)N[C@H](C(=O)N2CCCCC2)CC(=O)N[C@H](C(C)C)C(=O)N(C)[C@@H](Cc2ccccc2)C(=O)N[C@@H](CC(C)C)C(=O)N(C)[C@@H](CC(C)C)C(=O)N[C@@H]([C@@H](C)O)C1=O` [pd52] ([dV][NMeF]L[NMeL]T[NPrGly][NMeL]S(Me2NCH2CH2)[NMeF][NMeV]D-Piperidide; lactam N-11), the Papp A→B at 180 min turned out to be 0.12 ×10⁻⁶ cm/s.
`CCCCN1CC(=O)N(C)[C@@H](CC(C)C)C(=O)N[C@@H](COC(C)(C)C)C(=O)N(C)[C@@H](Cc2ccccc2)C(=O)N(C)[C@@H](C(C)C)C(=O)N[C@H](C(=O)N2CCCCC2)CC(=O)N[C@H](C(C)C)C(=O)N(C)[C@@H](Cc2ccccc2)C(=O)N[C@@H](COCCN(C)C)C(=O)N(C)[C@@H](CC(C)C)C(=O)N[C@@H]([C@@H](C)O)C1=O` [pd53] ([dV][NMeF]S(Me2NCH2CH2)[NMeL]T[NBuGly][NMeL]S(tBu)[NMeF][NMeV]D-Piperidide; lactam N-11) registered a Papp A→B at 180 min of 0.14 ×10⁻⁶ cm/s.
Same read-out and setting: in the case of `CC(C)C[C@@H]1NC(=O)[C@H](CC(C)C)N(C)C(=O)CCCN(C)C(=O)C[C@@H](C(=O)N2CCCCC2)NC(=O)[C@H](CC(C)C)N(C)C(=O)[C@H](CC(C)C)N(C)C(=O)[C@H]([C@@H](C)O)NC(=O)[C@H](CC(C)C)N(C)C(=O)[C@H](COCCN(C)C)NC(=O)[C@H](Cc2ccccc2)N(C)C(=O)[C@H](Cc2ccccc2)N(C)C1=O` [pd54] ([NMeGABA][NMeL]L[NMeF][NMeF]S(Me2NCH2CH2)[NMeL]T[NMeL][NMeL]D-Piperidide; lactam N-11) it was 0.073 ×10⁻⁶ cm/s; in that of `CCCCN1CC(=O)N(C)[C@@H](C(C)C)C(=O)N[C@H](C(=O)N2CCCCC2)CC(=O)N(C)[C@@H](C)C(=O)N[C@@H](COCCN(C)C)C(=O)N(C)[C@@H](CC(C)C)C(=O)N(C)[C@@H](Cc2ccccc2)C(=O)N[C@@H](CC(C)C)C(=O)N(C)[C@@H](Cc2ccccc2)C(=O)N(C)[C@@H](CC(C)C)C(=O)N[C@@H]([C@@H](C)O)C1=O` [pd56] ([NMeA]S(Me2NCH2CH2)[NMeL][NMeF]L[NMeF][NMeL]T[NBuGly][NMeV]D-Piperidide; lactam N-11), 0.12 ×10⁻⁶ cm/s.

Still in this series, the particulars now being: human; Papp; Table 25, cyclic peptides containing Ser(Et-2-NMe2) or Gln(Ms), not in table head; read-out: Caco-2.
For the compound `CC(C)C[C@@H]1NC(=O)[C@H](Cc2ccccc2)N(C)C(=O)[C@H](Cc2ccccc2)N(C)C(=O)[C@H](COCCN(C)C)NC(=O)[C@H](CC(C)C)N(C)C(=O)CCCN(C)C(=O)C[C@@H](C(=O)N2CCCCC2)NC(=O)[C@H](CC(C)C)N(C)C(=O)[C@H](CC(C)C)N(C)C(=O)[C@H]([C@@H](C)O)NC(=O)[C@H](CC(C)C)N(C)C1=O` [pd55] ([NMeGABA][NMeL]S(Me2NCH2CH2)[NMeF][NMeF]L[NMeL]T[NMeL][NMeL]D-Piperidide; lactam N-11), the Papp A→B at 180 min came out at 0.1 ×10⁻⁶ cm/s.
